Source: US20010034362A1, “Pyrrolidine derivatives for vision and memory disorders” (Guilford Pharmaceuticals Inc., priority 1998, published 2001)
Marks after values point to notes of the source that are not given here.

Legend:
[1] = test system: retinal ganglion cell axons; test: Protection of retinal ganglion cell axons from degeneration following optic nerve transection (Table V); assay type: in vivo; settings: ± SEM
Description: Efficacy of representative compounds from different immunophilin ligand series in protecing retinal gangiou cell axons from degeneration following optic nerve transection is set forth in Table V.

[2] = test system: retinal ganglion cells, optic nerve axons and myelin; test: Retinal ischemia by raised intraocular pressure, examined 28 days after the episode; assay type: in vivo, adult rats
Description: Retinal ganglion cells were retrogradely labeled in adult rats by bilateral injection of fluorogold in their lateral geniculate nuclei. Labeled ganglion cells in the normal rat retina appear as white profiles against the dark background (FIG. 1A). Complete retinal ischemia was produced by infusing normal saline solution into the retinal vitreous cavity of each eye until the intraocular pressure exceeded arterial blood pressure. 28 days after the ischemic episode extensive degeneration of retinal ganglion cell was evidenced by massive reduction in the density of fluorogold labeled cells (FIG. 1B).
Optic nerves from vehicle treated cases examined 28 days after a 1 hour retinal ischemic episode are characterized by a decreased density of optic nerve axons and the appearance of numerous degenerating myelin figures (bright white filled circles).

[3] = Clearance (Table V comments); assay type: in vitro ADME
retinal ganglion cells = test: Example 17: optic nerve transection, GPI-1046 for 28 days, sacrifice at 90 days; assay type: in vivo, Sprague Dawley rats; settings: 10 mg/kg/day s.c. for 28 days
Description: Transection of the mammalian optic nerve results in a brief period of abortive regeneration, but the majority of axotomized neurons die and the axons from many persisting ganglion cells die back beyond the optic nerve head.

retina = test: Streptozotocin induced diabetes, retinal neovascularization and neuronal loss; assay type: in vivo
aged mice = test: Morris watermaze, spatial learning and memory in aged rodents; assay type: in vivo, C57BL/6N-Nia mice; settings: aged impaired mice, 10 mg/kg daily, retention testing after 3 weeks of dosing
Description: The Morris watermaze is widely used for assessing spatial memory formation and retention in experimental animals. The test deoends on the animal's ability to utilize spatial visual information in order to locate a submerged escape platform in a water tank. It is important that the tank itself be as devoid of specific visual features as possible—thus, it is always circular in shape, the sides are kept smooth and in uniform dull colors, and the water is rendered opacue with nontoxic watercolour pigment or powdered milk. This is to ensure that the animal navigates only by the use of more distant visual cues, or by the use of intra-maze cues specifically provided by the experimenter. The animals' path, speed, and swim time are tracked with a ceiling camera for lacer computerized analysis. Over the course of several successive trials, spatial learning can therefore be defined as a drop of distance swum, or time elapsed, from placement in the tank until escape onto the invisible platform. The procedure involved using three-month old (young) and 18-19 month old male C57BL/6N-Nia (aged) mice which habituated to the well known and conventional Morris watermaze during a 4 trials/day, 3-4 day visible platform training phase. […] Swim Distances (cm) were analyzed in a 7×5 ANOVA including Groups and Blocks (1-5) as factors in the analysis, treating Blocks as a repeated measure.

[4] = test system: retinal ganglion cells and optic nerve axons; test: In vivo retinal ganglion cell and optic nerve axon tests after optic nerve transection, 14 or 28 day treatment, sacrifice at 90 days; parameters: species or system Sprague Dawley rats; settings: for RGC Counts: mean density ± SEM of Fluoro-gold labeled RGC in 400 μm × 400 μm gridfields; for ON Axon density: mean ± SEM of RT97 labeled axons in 200 μm × 200 μm region; for increased ON axon density: adjusted for optic nerve diameter; for ON axon Count: calculated by multiplying axonal density by ON area; for Proximal optic nerve myclin basic protein Density: ± SEM, 20X analysis of % areal coverage
Description: Complete transection of the optic nerve 5 mm from the eyeball produces massive degeneration of retinal ganglion cells, representing loss of >87% of the normal ganglion cell population 90 days after the injury (Table 1). Few spared fluorogold pre labeled ganglion cells are present in vehicle treated cases (large-white figures) among a population of small microglia that digest the debris of the degenerating cells and take up the fluorogold label (FIG. 3A).
90 days after transection few ganglion cell axons remain within the optic nerve (FIG. 4B), representing only 5.6% of the normal population. The loss of axons reflects both the death of retinal ganglion cells and the regression or “dying back” of the axons of ˜70% of the small surviving ganglion cell population into the retina itself (Table 1).
Myelin basic protein immunchistochemistry labels fascicles (darker labeled ‘islands’) of myelinated axons in the normal optic nerve (FIG. 6A, upper left). 90 days after transection extensive degeneration of myelin is evident in vehicle treated cases, characterized by the loss of fascicular organization and the appearance of numerous large dense degenerating myelin figures (FIG. 6B, upper right).
Complete transection of the optic nerve leads to degeneration of the distal segments (axon fragments disconnected from the ganglion cell bodies), and the degeneration of their myelin sheaths.
All eyes and optic nerves stumps were removed.

[5] = test system: streptozotocin-induced diabetic rat; test: Streptozotocin-induced diabetic sensory neuropathy, hot plate and tail flick; assay type: in vivo, Male Wistar rats; settings: lesioned animals treated for 6 weeks at 10 mg/kg s.c.
Experimental: The procedure involved using Male Wistar rats which were given a single injection of streptozotocin (65 mg/kg i.v.). Blood glucose levels were determined weekly for the first three weeks and on the last week of the experiment. Animals were evaluated weekly for signs of sensory neuropathy using the conventional hot plate and tail flick apparatus test procedures.

[6] = 28 day treatment beginning 8 weeks after onset of streptozotocin induced diabetes
[7] = 14 days GPI 1046, 90 days after transection
[8] = 28 days GPI 1046, 90 days after transection

CCC(C)(C)C(=O)C(=O)N1CCC[C@H]1C(=O)OCCCc1cccnc1 [GPI 1046, 3-(3-pyridyl) -1-propyl (2s) -1-(3,3-dimethyl-1,2-dioxopentyl) -2-pyrrolidinecarboxylate]
RT97 + RGC axon density 14 days after ON transection (% ON axons rescued) [1]: 60.5% ± 3.9 SEM | protection of retinal ganglion cells (fluorogold labeled cell density) ([2]; 10 mg/kg s.c. 1 hour prior to ischemia and 10 mg/kg/day for next four days, 28 days after ischemia): noticeable protection of a large proportion of the vulnerable ganglion cell population | density of degenerating myelin figures ([2]; 28 days after 1 hour retinal ischemic episode): dramatically decreased | protection of optic nerve axons from ischemic degeneration ([2]; 28 days after 1 hour retinal ischemic episode, toluidine blue staining): protected the majority of optic nerve axons from degeneration | Clearance [3]: 63.8 µL/min | ganglion cell population spared (perikaryal neuroprotection) (retinal ganglion cells; 90 days after transection): 25% | preservation of axons in the proximal stump of the transected nerve (retinal ganglion cells; RT97 neurofilament immunohistochemistry): preserved the axons of virtually ali croteczed neurons | loss of neurons in the INL and GCL (retina; 28 day treatment beginning 8 weeks after onset of diabetes, compared to streptozotocin/vehicle controls): appeared to decrease the loss of neurons in both the INL and GCL | neovascularization in the PR, ONL, OPL and INL (retina; [6]): reduced neovascularization | neuronal loss in the ONL (retina; [6]): did not appear to protect against neuronal loss in the ONL | spatial memory performance (swim distance, retention testing) (aged mice): significantly enhanced spatial memory performance | RGC Counts ([4]; 14 days GPI 1046 10 mg/kg/day sc, 90 days after transection): small but not significant increase | % RGCs Rescued [4, 7]: 5.3% | % surviving RGCs with ON axons [4, 7]: 33.6% | ON head area (% sham) [4, 7]: 76% | Spared RGC population [4, 7]: 20,275 | ON Axon density [4, 7]: 569 ± 23 | increased ON axon density ([4]; 14 days GPI 1046): 1.5X | ON axon Count ([4]; 14 days GPI 1046): 6820 | Distal optic nerve stump shrinkage ([4]; 14 days GPI 1046, cross sectional area compared to sham control): did not protect against shrinkage of the distal stump | Distal optic nerve myclin base protein Density, loss ([4]; 14 days GPI 1046, cross sectional area multiplied by myelin density): slightly increase the density of myelin | Proximal optic nerve myclin basic protein Density ([4]; 14 days GPI 1046): 1.6 ± 3.0 SEM % recovery | RGC Counts ([4]; 28 days GPI 1046 10 mg/kg/day sc, 90 days after transection): 67.9 ± 5.8 | % surviving RGCs with ON axons [4, 8]: 81.4% | ON head area (% sham) [4, 8]: 95%* | Spared RGC population [4, 8]: 28,096* | ON Axon density [4, 8]: significant increase in the density of large, and particularly medium and small caliber optic nerve axons | increased ON axon density ([4]; 28 days GPI 1046): 5.0X | ON axon Count ([4]; 28 days GPI 1046): 22,861* | Distal optic nerve stump, less shrinkage ([4]; 28 days GPI 1046, cross sectional area compared to sham control): prevented cross sectional shrinkage | Proximal optic nerve myclin basic protein Density ([4]; 28 days GPI 1046): 70 ± 6.3 SEM % recovery | protection of optic nerve axons ([4]; first 14 days GPI 1046, proximal stump, 90 days after transection): 5.3% | hot plate and tail flick latency [5]: improvement in latency
